Literature values, collected in patent publication US20120289594A1, “ORAL DOSAGE FORM” (Orion Corporation, priority 2005, published 2012).

Legend:
[1] = background statement
[2] = background statement; remark: listed apart in the source

absorption in the gastrointestinal tract [1]: quickly absorbed
water solubility [2]: very low
Compound: CCN(CC)C(=O)/C(C#N)=C/c1cc(O)c(O)c([N+](=O)[O-])c1 [Entacapone, (E)-2-cyano-3-(3,4-dihydroxy-5-nitrophenyl)-N-diethyl-2 propenamide]
